Reference: patent publication US11471502B2, “Neuroprotective peptide” (UNIVERSITY COLLEGE CARDIFF C[…], priority 2017, dated 2022)
“Also recorded” adds a separate entry of the source.

Legend:
[1] = system: embryonic striatal cultures; experiment: TUNEL apoptosis in neuronal embryonic striatal cultures; assay type: cell-based, mouse
Description: Data are expressed as Mean±SEM, n=5. Two-way ANOVA Bonferroni post-hoc comparison **p<0.01.
Embryonic cultures (E16) were prepared from striata of WT mice, plated onto poly-L-lysine coated glass and kept for 10 days in culture medium as previously described (Fasano et al, Biol Psy 2009). Two different concentrations (20 μM and 50 μM) of CPP-RB5 and CPP-SCR peptides were added to the culture medium by the third day and replaced every day. On day 11, cells were fixed with 4% PFA pH 7.4 in PBS for 10 min.
The DeadEnd Colorimetric TUNEL System (Promega) was used to detect apoptotic cells in cultured cells labelling the fragmented DNA of apoptotic cells using a modified TUNEL assay. TUNEL staining was realized with diaminobenzide (DAB) following the manufacture's protocol. Sample areas were digitized through a video camera (Nicon) connected to a Zeiss microscope using a 20× objective. 4 areas were counted and averaged for each plate.

ERK1/MAPK3 = experiment: Single in vivo administration in ERK1 KO versus ERK1 WT mice; design: species or system mouse
Description: a) RB5 peptide selectively promoted activation of ERK2. Acute striatal slices either pre-treated with Scramble (SCR) or RB5 peptide (50 μM) and then stimulated 10 minutes with glutamate (GLU) (100 μM) or vehicle were analysed in Western blot (left panel) and probed with anti phospho ERK antibodies (p44^ERK1 and p42^ERK2) and anti ERK1/2 antibody. GAPDH was used as loading control. […] No changes were detected in the total ERK1 and ERK2 levels. GAPDH was used as loading control. […] Mice injected with a single dose of CPP-SCR or CPP-RB5 peptides (20 mg/kg, i.p.) were rapidly perfused 1 h later and brains were dissected and further analysed for IHC and immunofluorescence. Representative photomicrographs of pERK1/2, pMSK, pAch3, pELK1 and c-Fos expression in the striatum. […] Two-way ANOVA Bonferroni post hoc comparison: one black star, p<0.05, two black stars, p<0.01, one white star, p<0.001. p) Dose response curve of RB5 peptide for ERK activation. 200 μm thick striatal slices were freshly prepared from 2-month old mice and transferred into a perfusion chamber for 1 h at 32° C. Slices were pre-treated with different doses of RB5 or scrambled control. After 1 h, slices for each dose was fixed in PFA 4% for 15 min. 18 μm cryo-sections were processed for immunohistochemistry with anti-phospho p44/p42 MAP kinase. Neuronal quantification was performed with ImageJ software by counting the number of phospho-ERK positive cells in each slice. The level of activation is expressed on the Y-axis as arbitrary units (AU). Doses are reported in a logarithmic scale (Log 10) on the X-axis. The EC50 was calculated using GraphPad Prism software.
ERK1 male KO and littermate controls, were generated as described previously and were used for ex vivo analysis.
Mice pre-treated with a single dose of CPP-RB5 or CPP-SCR (20 mg/kg) were perfused 1 h later and brain slices were processed for nuclear and cytoplasmic markers.

MPTP treated mice = experiment: Subacute MPTP mouse model of Parkinson's Disease; assay type: in vivo; conditions: 4 days
Description: Adult mice were treated with MPTP or vehicle (20 mg/kg i.p.) for 4 days. […] Two-way ANOVA Bonferroni post-hoc comparison *p<0.05**p<0.01.
Two-way ANOVA Bonferroni post-hoc comparison *p<0.05**p<0.01
We have assessed the neuroprotective effect of RB5 in the MPTP (1-methyl-4-phenyl-1,2,3,6-tetrahydropyridine) neurotoxin model of Parkinson's Disease (FIG. 6). Mice have been treated with MPTP or vehicle (20 mg/kg, i.p) for 4 days. RB5 or scramble peptide (20 mg/kg, i.p) was injected 1 h before MPTP/vehicle.

[2] = RB5 brain levels by HPLC-MS/MS after single i.p. administration; assay type: in vivo, mouse; conditions: single i.p. 20 mg/kg, mass spectrometry
Description: Bioavailability of RB5 in the mouse brain was determined at different time intervals (1, 3, 6, 12 h) after a single i.p. administration of 20 mg/kg. RB5 was then quantified in mouse brain using HPLC-MS/MS. Brain samples were homogenized with 1:4 w/v of 50% acetonitrile, 5% TFA in water with an homogenizer ultra-turrax and then centrifuged at 13000 rpm for 10 min at 4° C. The supernatant was collected and centrifuged at 13000 rpm for 2 minutes at 4° C. The supernatant was then collected in ice, extracted using Sep-Pak cartridges C18, lyophilised and kept at 4° C. before HPLC-MS/MS analysis. Immediately before the analysis samples were suspended in 100 μL of 0.1% HCOOH in water/8% acetonitrile in auto-sampler vials.
HPLC-MS/MS analysis was performed using a system consisting of an Agilent 1200 series HPLC system coupled with an Agilent 6410 Triple Quadruple mass spectrometer. Mass Hunter Workstation v. […] The quantification of mouse brain levels of RB5 and scramble peptides was carried out using an internal standard curve with peptide concentrations ranging from 0.1 to 4 ng per μl. […]
Peptides were then detected on an Agilent 6410 QQQ mass spectrometer using the following parameters: positive ion mode, 5 kV capillary voltage, cone voltage 500 V, gas flow rate 8 L/min at 350° C., nebulizer gas pressure 40 PSI at 350° C., well time 75 msec and Q1 and Q3 set to unit resolution.

Molecule	reduction of apoptosis compared to CPP-SCR values ([1]; 50 μM, 7 consecutive days, TUNEL) [%]	pERK, pAcH3 (and pS6) (ERK1/MAPK3; ERK1 KO mice, single administration)	pERK and pAcH3 (ERK1/MAPK3; ERK1 WT mice, single administration)	phosphorylation of S6 (ERK1/MAPK3; ERK1 WT vs ERK1 KO mice)	TH loss in Substantia Nigra (MPTP treated mice; 20 mg/kg i.p. 1 h before MPTP 20 mg/kg)	apoptotic cells (TUNEL, nigral neurones) (MPTP treated mice; 20 mg/kg i.p. 1 h before MPTP)	neurodegeneration (TH, TUNEL, cleaved caspase 3) (MPTP treated mice; 20 mg/kg i.p. 1 h before MPTP)	pre-apoptotic state (Cleaved Caspase-3) (MPTP treated mice; 20 mg/kg i.p. 1 h before MPTP)	apoptotic levels (TUNEL apoptotic nuclei) ([1]; higher dose (50 μM), 7 days, vs Scramble)	time up to which high RB5 brain levels were detected [2]
GRKKRRQRRRPPQGGGGGEPRRTEGVGPGVPGEVEMVKGQPFDV (listed as Homo sapiens) [CPP-RB5]	32									
CSCC[C@H](NC(=O)[C@H](CCC(=O)O)NC(=O)[C@@H](NC(=O)[C@H](CCC(=O)O)NC(=O)CNC(=O)[C@@H]1CCCN1C(=O)[C@@H](NC(=O)CNC(=O)[C@@H]1CCCN1C(=O)CNC(=O)[C@@H](NC(=O)CNC(=O)[C@H](CCC(=O)O)NC(=O)[C@@H](NC(=O)[C@H](CCCNC(=N)N)NC(=O)[C@H](CCCNC(=N)N)NC(=O)[C@@H]1CCCN1C(=O)[C@H](CCC(=O)O)NC(=O)CNC(=O)CNC(=O)CNC(=O)CNC(=O)CNC(=O)[C@H](CCC(N)=O)NC(=O)[C@@H]1CCCN1C(=O)[C@@H]1CCCN1C(=O)[C@H](CCCNC(=N)N)NC(=O)[C@H](CCCNC(=N)N)NC(=O)[C@H](CCCNC(=N)N)NC(=O)[C@H](CCC(N)=O)NC(=O)[C@H](CCCNC(=N)N)NC(=O)[C@H](CCCNC(=N)N)NC(=O)[C@H](CCCCN)NC(=O)[C@H](CCCCN)NC(=O)[C@H](CCCNC(=N)N)NC(=O)CNC(C)=O)[C@@H](C)O)C(C)C)C(C)C)C(C)C)C(=O)N[C@H](C(=O)N[C@@H](CCCCN)C(=O)NCC(=O)N[C@@H](CCC(N)=O)C(=O)N1CCC[C@H]1C(=O)N[C@@H](Cc1ccccc1)C(=O)N[C@@H](CC(=O)O)C(=O)N[C@@H](C(=O)O)C(C)C)C(C)C [RB5]		did not alter; also recorded: did not reach the statistical significance	significant activation	comparable in both genotypes	significant reduction of TH loss	significant reduction of apoptotic cells	Neurodegeneration was prevented	significant reduction of the pre-apoptotic state	significant reduction of apoptotic levels	up to 6 h
